Several values for one entry are separate records, joined by “and”; a condition that tells them apart may be missing. Equal entries are not always repeated.
What was measured:
[1] = molecular target: T1, Prostaglandin E2 receptor EP3 subtype (Bos taurus, UniProt P34979)
T1 sequence (P34979 whole entry): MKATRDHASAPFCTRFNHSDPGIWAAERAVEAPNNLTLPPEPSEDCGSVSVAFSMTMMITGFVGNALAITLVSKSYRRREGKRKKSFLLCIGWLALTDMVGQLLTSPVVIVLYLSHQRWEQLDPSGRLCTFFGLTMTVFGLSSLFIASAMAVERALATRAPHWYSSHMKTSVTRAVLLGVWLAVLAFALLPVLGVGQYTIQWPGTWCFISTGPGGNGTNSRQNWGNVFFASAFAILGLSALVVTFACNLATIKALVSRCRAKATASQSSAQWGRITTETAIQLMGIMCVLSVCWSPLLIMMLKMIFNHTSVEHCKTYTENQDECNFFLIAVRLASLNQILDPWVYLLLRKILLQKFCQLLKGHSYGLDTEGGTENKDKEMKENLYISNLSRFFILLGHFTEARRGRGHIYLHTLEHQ

[2] = molecular target: Prostaglandin F2-alpha receptor (Bos taurus, UniProt P37289)
Prostaglandin F2-alpha receptor, sequence (P37289 whole entry): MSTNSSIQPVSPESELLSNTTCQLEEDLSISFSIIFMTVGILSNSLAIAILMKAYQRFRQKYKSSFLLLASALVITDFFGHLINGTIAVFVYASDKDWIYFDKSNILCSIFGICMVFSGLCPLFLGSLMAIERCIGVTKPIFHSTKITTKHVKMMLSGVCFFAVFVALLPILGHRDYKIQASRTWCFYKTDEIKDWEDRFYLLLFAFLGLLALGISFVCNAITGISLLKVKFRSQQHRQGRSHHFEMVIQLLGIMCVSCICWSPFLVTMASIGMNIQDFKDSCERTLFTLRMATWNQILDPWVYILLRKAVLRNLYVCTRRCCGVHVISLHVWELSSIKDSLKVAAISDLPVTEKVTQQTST

Which Ki [1] does the source give for CCCCC(C)(O)CC=CC1C(O)CC(=O)C1CCCCCCC(=O)OC (configuration not stated) [MISOPROSTOL (Methyl Ester)] here?
The Ki was 25 nM and 54 nM.

Which Ki [2] does the source give for O=C(CCC=CCCC1C(=O)CC(O)C1OCC(O)COc1ccccc1)Oc1ccc(NC(=O)c2ccccc2)cc1 (configuration not stated) [NSC_5311224] here?
Its Ki is > 10000 nM.

What about the Ki [1] of the same compound?
The Ki was 8 nM and 11 nM.

How did the Ki [2] turn out when COC(=O)CCC=C=CCC1C(=O)CC(O)C1C=CC(O)COc1ccccc1 (configuration not stated) [NSC_5282207] was run?
Its Ki is 1000 nM.

And the Ki [1]?
Its Ki is 12 nM and 25 nM.

Which Ki [2] does the source give for CCCCCCCC(=O)CCC1C(O)CC(O)C1CC=CCCCC(=O)OC(C)C (configuration not stated) [CAS_151671] here?
Its Ki is 5900 nM.

What about the Ki [1] of the same compound?
Its Ki is > 10000 nM.

For CC#CCC(C)[C@H](O)/C=C/[C@@H]1[C@H]2C/C(=C/CCCC(=O)O)C[C@H]2C[C@H]1O (some centres not stated), which Ki [1] is on record?
The Ki was 265 nM.

What does the source list for CCCCC[C@H](O)/C=C/C1[C@@H](C/C=C\CCCC(=O)O)[C@H]2CO[C@@H]1C2 (some centres not stated) [U46619]?
Ki [2]: 8900 nM; Ki [1]: > 10000 nM

How did the Ki [2] turn out when O=C(O)CCCC=CCC1C(O)CC(O)C1C=CC(O)COc1cccc(C(F)(F)F)c1 (configuration not stated) [CAS_40666-16-8] was run?
Its Ki is 100 nM.

And the Ki [1]?
The Ki was 3170 nM and 3500 nM.

For CC(C)OC(=O)CCC/C=C/C[C@@H]1[C@@H](CC[C@@H](O)CCc2ccccc2)[C@H](O)C[C@@H]1O [LATANOPROST (PHXA41)], which Ki [2] is on record?
The Ki was 4200 nM.

What about the Ki [1] of the same compound?
Its Ki is > 10000 nM.

For CCCCCC(O)CC=C1C(=O)C=CC1CC=CCCCC(=O)O (configuration not stated) [CAS_41598-07-6], which Ki [2] is on record?
Its Ki is 2500 nM.

And the Ki [1]?
Its Ki is 1580 nM and 1110 nM.

Which results are given for O=NN1CSCSC1 [NSC_130741]?
Ki [2]: > 10000 nM; Ki [1]: > 10000 nM

How did the Ki [2] turn out when CCCCC[C@@H](O)/C=C/[C@H]1[C@H](O)CC(=O)[C@@H]1CCCCCCC(=O)O was run?
The Ki was > 10000 nM.

And the Ki [1]?
Its Ki is 2 nM and 4 nM.

How did the Ki [1] turn out when CC(=O)NNC(=O)N1Cc2ccccc2Oc2ccc(Cl)cc21 [CAS_4336830] was run?
The Ki was 3000 nM and > 10000 nM.

Which Ki [2] does the source give for CCCCC[C@H](O)/C=C/[C@@H]1[C@H]2C/C(=C\CCCC(=O)O)C[C@H]2C[C@H]1O here?
Its Ki is > 10000 nM.

And the Ki [1]?
Its Ki is 4860 nM and 5370 nM.

How did the Ki [2] turn out when CC(C)OC(=O)CCC/C=C\C[C@@H]1[C@@H](/C=C/[C@@H](O)CCc2ccccc2)[C@H](O)C[C@@H]1O [CAS_130209-76-6] was run?
The Ki was 59 nM.

And the Ki [1]?
The Ki was 388 nM.

For CCCC1([C@@H](O)C/C=C/C2[C@H](O)CC(=O)[C@@H]2CCCCCCC(=O)OC)CCC1 (some centres not stated) [Butaprost (Methyl Ester)], which Ki [1] is on record?
The Ki was > 10000 nM.

O=C(O)CCC/C=C\C[C@@H]1[C@@H](/C=C/[C@@H](O)COc2cccc(Cl)c2)[C@H](O)C[C@@H]1O [CLOPROSTENOL] was tested. Which Ki [1] did it give?
Its Ki is 90 nM and 91 nM.

Which results are given for CS(=O)(=O)NC(=O)CCCC=CCC1C(=O)CC(O)C1C=CC(O)COc1ccccc1 (configuration not stated) [CAS_60325-46-4]?
Ki [2]: 2500 nM; Ki [1]: 21 nM and 11 nM

How did the Ki [2] turn out when O=C(O)CCCC=CC[C@@H]1[C@@H](CC[C@@H](O)CCc2ccccc2)[C@H](O)C[C@@H]1O [NSC_170548] was run?
The Ki was 98 nM.

And the Ki [1]?
The Ki was > 10000 nM and 7940 nM.

For CCCCC[C@H](O)/C=C/C1[C@H](O)C[C@H](O)[C@@H]1C/C=C\CCCC(=O)O (stereo partly drawn) [(Z)-7-[(1R,3R,5S)-3,5-Dihydroxy-2-((E)-(S)-3-hydroxy-oct-1-enyl)-cyclopentyl]-hept-5-enoic acid], which Ki [1] is on record?
The Ki was 37 nM and 24 nM.

How did the Ki [2] turn out when O=C(O)CCC/C=C\C[C@@H]1[C@@H](/C=C/[C@@H](O)COc2ccccc2)[C@H](O)C[C@@H]1O [PGF2Alpha,16-Phenoxy] was run?
The Ki was 22 nM.

What does the source list for O=C(O)CCC/C=C\C[C@H]1C(=O)C[C@@H](O)[C@@H]1/C=C/[C@@H](O)CCc1ccccc1 [17-PHENYL TRINOR PROSTAGLANDIN E2]?
Ki [2]: 1410 nM; Ki [1]: 16 nM and 7 nM

Which results are given for CC1CCCCC1C(O)C=CC1C(O)CC(Cl)C1CC=CCOCC(=O)O (configuration not stated) [CAS_5311208]?
Ki [2]: > 10000 nM; Ki [1]: 8740 nM

Which results are given for CCCCC[C@H](O)/C=C/[C@H]1[C@H](O)CC(=O)[C@@H]1C/C=C\CCCC(=O)O [DINOPROSTONE]?
Ki [2]: 3400 nM; Ki [1]: 4 nM and 3 nM

For O=C(O)CCCCCCc1c(O)n(Cc2ccccc2)c(=O)n1NCC(O)C1CCCCC1 (configuration not stated) [CAS_122021], which Ki [2] is on record?
Its Ki is > 10000 nM.

What about the Ki [1] of the same compound?
The Ki was > 10000 nM.

For COC(=O)CCC=CCCC1C(=O)CC(O)C1C=CCC(C)(O)C=CC1=CCCC1 (configuration not stated) [CAS_132045], which Ki [1] is on record?
Its Ki is 29 nM.
